Source: PMC6369734, “Spy vs. spy: selecting the best reporter for ^19F NMR competition experiments” (Chemical Communications (Cambridge, England), 2019)
Like-named read-outs stand apart in the source and are kept apart here.

Key:
[1] = biological target: T1, VHL (VBC complex: pVHL54-213, eloB1-104, eloC17-112) (Homo sapiens, UniProt P40337); assay: Surface plasmon resonance (SPR) steady-state binding to immobilised biotinylated AviVBC; design: key to K D, SPR (footnote symbol instead of value): ^c: High responses in the SPR experiments, promiscuous or unspecific binders
T1 construct: equimolar complex of pVHL54-213, eloB1-104 and; made in house; host or cells: E. coli
Method: The KD of each compound to VHL was determined by surface plasmon resonance (SPR) experiments.
3. Protein expression, purification and biotinylation
The VHL E3 ligase is a multi-protein complex composed of five proteins: VHL protein (pVHL), elongin B (eloB), elongin C (eloC), Cullin-2 (Cul2) and Ring-box protein 1 (Rbx1).[3] Since the compounds developed in this work bind solely to the VHL protein, the VBC complex (equimolar complex of pVHL54-213, eloB1-104 and eloC17-112) was used in all experiments, as it can be readily expressed in E. coli with high yields,[4] while the full E3 ligase would require baculovirus-insect cells expression system.[5] The expression and purification of VBC was performed as described previously by our group[2] and employed directly in all NMR experiments.
For the surface plasmon resonance (SPR) experiments, a VBC complex containing an AviTagTM in the N-terminus of eloB (AviVBC) was purified using the same procedure described for VBC. The modified eloB/eloC expression plasmid was previously developed in-house by Dr. Michael Roy and kindly shared. The AviVBC complex was site-specifically biotinylated in the AviTag using the GST-BirA method previously described by […]
4. Surface plasmon resonance experiments
The SPR experiments were performed with a Biacore T200 instrument (GE Healthcare). All measurements were performed at 20 °C with buffer containing 10 mM HEPES, pH 7.5, 150 mM NaCl, 1 mM TCEP, 0.005% (v/v) Tween® 20 and 2% (v/v) dimethyl sulfoxide (DMSO). Biotinylated AviVBC (~0.5 μM) was immobilised at 22 °C onto a Series S sensor chip SA (GE Heathcare) to levels of approximately 3500-4000 response units […]
Solutions of each spy molecule were prepared in buffer at concentrations based on previous structure-activity relationship studies of VHL ligands (K D expected in the nanomolar range for structures like spy molecules 16 and 22, or in the milimolar range for spy molecules similar to 1 and 9). From this first screen, the binding affinities were roughly estimated using the Biacore T200 evaluation software (GE Healthcare), then measurements were repeated using concentrations above and below the KD obtained in the first round to generate better curves for fitting the data accurately. Contact and dissociation times varied across the different compounds tested, but in […]
dissociated from the surface in less than sixty seconds.
Data analysis was performed using the steady state responses of the double-referenced sensorgrams (raw data subtracted from blank and reference surface injections) obtained for each concentration tested. These responses were plotted against the respective concentrations and the data fitted to a 1: 1 binding model u sing the Biacore T200 evaluation software and the following equation: […]
Where Req is the steady-state response at a given concentration C. Deviations in Req were corrected by adding an ‘offset’ term to the equation. KD is the dissociation constant to be determined and RMAX is the maximum response expected for a given compound according to the equation below:
Where n is the stoichiometry of the interaction ( in this case, n = 1) and RProtein is the immobilization level of protein. MWCompound and MWProtein are the molecular weights of compound and protein, respectively. Sensorgrams and fitting parameters for all spy molecules can be found in section 7.

VHL (VBC complex) [2] = biological target: T2, VHL (VBC complex) (Homo sapiens, UniProt P40337); assay: 19F CPMG NMR transverse relaxation rate (R2) and R2 contrast (C2) of spy molecule with and without protein; assay type: binding; conditions: for R2 contrast – C2: supplement 8.1
T2 construct: equimolar complex of pVHL54-213, eloB1-104 and; made in house; host or cells: E. coli
Excerpt: Due to the large CSA of fluorine and the significant differences in the fluorine isotropic chemical shift (δF) between the free and bound states, the transverse relaxation rate (R2) is a well-established sensitive parameter to detect ligand binding.[4] Therefore, fluorine NMR experiments including a Carr–Purcell–Meiboom–Gill (CPMG) spin-echo filter[10] before acquisition were employed to monitor ligand binding to VHL by measuring peak intensity, as changes in other NMR parameters, such as chemical shift and peak width, were not as significant. The R2 values of the CF3 peak of each compound in the absence and in the presence of protein were determined by performing multiple ^19F CPMG experiments varying the CPMG filter (Fig. 2a). To quantify the shift in R2 upon binding, the R2 contrast (C2)[11] was determined. Ideally, a good spy molecule should have a large increase in R2 (fast relaxation) when protein is present, resulting in a large assay window for the competition experiments (Fig. 2b).
5. Measurement of the transverse relaxation rates by 19F CPMG NMR
All the NMR experiments were performed in a 500 MHz Bruker AVANCE N MR spectrometer equipped with a CPQCI -F cryoprobe. To measure the transverse relaxation rates (R 2), a solution of each spy molecule at 100 μM was prepared in 50 mM potassium phosphate monobasic (KH2PO4), pH 7.5, 100 mM NaCl, 1 mM TCEP, 2% (v/v) DMSO, 20% D2O and 10 µM trifluoroacetic acid (TFA). For each solution, 19F CPMG experiments […]
Due to the fast relaxation of molecules 21 and 22, these experiments were repeated with shorter CPMG filters (50, 100, 150, 200, 300, 400, 700 and 1000 ms). The fluorine peaks were integrated and plotted against the resp ective CPMG filters. The R 2 relaxation rates were obtained from fitting the data as a n exponential decay (GraphPad Prism 6) according to the equation below: [7]
Where I(t) is the 19F signal intensity or integral, t is the total CPMG filter in seconds, I(0) is the signal intensity when t = 0. To obtain the R2 upon addition of prot ein, all the experiments above were repeated in presence of VBC at 1 µM. Experiments were performed as triplicates and the R 2 contrasts (C2) were obtained according to the equation below: [8]
Where R2Free is the R2 obtained for the spy molecule free in solution and R2Observed is the R2 obtained with the spy molecule in presence of VBC. The raw data, fitting, R2 and C2 values for each spy molecule can be found in section 8.1. For the R2 measurements using molecule 19 at varied concentrations of spy molecule and protein, see section 8.2 . For the R2 measurements using spy molecules 6 and 11 (used to generate figures S 2, S3 and S4) see

VHL (VBC complex) [3] = biological target: T2, VHL (VBC complex); assay: as above; assay type: binding; conditions: for R2 contrast – C2: section 8.3: spy molecules at 50 μM, VBC 1 μM
[4] = SPR steady-state fit, supplement section 7, read-out: KD (Biacore T200 fit)
[5] = SPR, 20 °C, steady-state 1:1 fit, footnote b values fitted because RMAX was not reached experimentally, read-out: K D, SPR
[6] = Spy molecule 100 μM, no protein
[7] = section 8.3: spy molecules at 50 μM in absence of VBC (sub-head prints Spy molecule 100 μM)
[8] = section 8.3: spy molecules at 50 μM in presence of VBC 1 μM (sub-head prints 100 μM)
[9] = SPR, responses too low, data could not be fitted, read-out: KD
[10] = SPR fit with very large error or RMAX above theoretical, unspecific / promiscuous binding suspected, read-out: KD (Biacore T200 fit, judged unreliable)

T2 sequence (P40337 54-213): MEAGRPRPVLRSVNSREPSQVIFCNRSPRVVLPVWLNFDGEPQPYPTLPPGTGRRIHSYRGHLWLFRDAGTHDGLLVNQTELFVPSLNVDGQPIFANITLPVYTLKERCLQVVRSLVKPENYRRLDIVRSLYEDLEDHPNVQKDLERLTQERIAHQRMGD
T2 sequence (Q15370 1-104 partner limits assumed): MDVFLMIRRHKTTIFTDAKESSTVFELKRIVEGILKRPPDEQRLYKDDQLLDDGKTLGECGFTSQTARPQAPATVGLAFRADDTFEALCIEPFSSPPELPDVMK
T2 sequence (Q15369 17-112 partner limits assumed): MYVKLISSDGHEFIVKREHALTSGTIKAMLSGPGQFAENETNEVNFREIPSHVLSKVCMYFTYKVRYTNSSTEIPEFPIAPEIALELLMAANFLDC
T1 sequence (P40337 54-213): as the sequence (P40337 54-213) above
T1 sequence (Q15370 1-104 partner limits assumed): as the sequence (Q15370 1-104 partner limits assumed) above
T1 sequence (Q15369 17-112 partner limits assumed): as the sequence (Q15369 17-112 partner limits assumed) above

Structure (SMILES) | Kd [1, 4] | Kd [1, 5] | R2 (VHL (VBC complex) [2]; Spy molecule 100 μM + VBC 1 μM) | R2 contrast – C2 (VHL (VBC complex) [2]; Spy molecule 100 μM + VBC 1 μM) | R2 (VHL (VBC complex) [2]; [6]) | R2 (VHL (VBC complex) [3]; [7]) | R2 (VHL (VBC complex) [3]; [8]) | R2 contrast – C2 (VHL (VBC complex) [3]) | binding kinetics / dissociation rates by SPR ([1]; SPR) | Kd [1, 9] | K D, SPR (footnote symbol instead of value) ([1]; SPR) | Kd [1, 10] | SPR binding behaviour ([1]; SPR, supplement section 7)
CC(=O)N1C[C@H](O)C[C@H]1C(=O)NCc1ccc(-c2scnc2C)c(C(F)(F)F)c1 [Compound 6] | 878 µM | 878 ± 98 µM | 1.760 ± 0.039 s⁻¹ | 37.7 ± 2.6% | 1.096 ± 0.020 s⁻¹ | 1.255 ± 0.043 s⁻¹ | 1.951 ± 0.062 s⁻¹ | 35.7 ± 4.0% | – | – | – | – | –
O=C(NCc1ccc(Br)cc1)C1CC(O)CN1C(=O)C(F)(F)F (stereo not drawn) [Compound 17] | – | 645 ± 100 µM | 3.189 ± 0.066 s⁻¹ | 62.0 ± 2.6% | 1.213 ± 0.028 s⁻¹ | – | – | – | – | – | – | – | –
Cc1ncsc1-c1ccc(CNC(=O)[C@@H]2C[C@@H](O)CN2C(=O)CC(C)(C)C)cc1C(F)(F)F [Compound 7] | 67.1 µM | 67.1 ± 14 µM | 3.614 ± 0.088 s⁻¹ | 62.1 ± 3.0% | 1.368 ± 0.033 s⁻¹ | – | – | – | – | – | – | – | –
CC(C)(C)C(NC(=O)C(F)(F)F)C(=O)N1CC(O)CC1C(=O)NCc1ccc(Br)cc1 (stereo not drawn) [Compound 21] | 0.447 µM | 0.447 ± 0.085 µM | 4.109 ± 0.247 s⁻¹ | 3.7 ± 8.8% | 3.959 ± 0.262 s⁻¹ | – | – | – | too high to be determined accurately | – | – | – | –
CC(=O)NC(C(=O)N1CC(O)CC1C(=O)NCc1ccc(-c2scnc2C)cc1C(F)(F)F)C(C)(C)C (stereo not drawn) [Compound 16] | 0.268 µM | 0.268 ± 0.03 µM | 1.828 ± 0.031 s⁻¹ | 1.3 ± 2.4% | 1.805 ± 0.032 s⁻¹ | – | – | – | too high to be determined accurately | – | – | – | –
CC(=O)N1C[C@H](O)C[C@H]1C(=O)NCc1ccc(Br)c(C(F)(F)F)c1 [Compound 2] | 657 µM | 657 ± 49 µM | 1.251 ± 0.021 s⁻¹ | 6.5 ± 2.2% | 1.170 ± 0.019 s⁻¹ | – | – | – | – | – | – | – | –
CC(=O)NC(C(=O)N1CC(O)CC1C(=O)NCc1ccc(-c2scnc2C)c(C(F)(F)F)c1)C(C)(C)C (stereo not drawn) [Compound 8] | 2.99 µM | 2.99 ± 0.75 µM | 1.639 ± 0.022 s⁻¹ | 17.7 ± 2.2% | 1.349 ± 0.027 s⁻¹ | – | – | – | – | – | – | – | –
O=C(NCc1ccc(Br)cc1C(F)(F)F)[C@@H]1C[C@@H](O)CN1 [Compound 9] | – | > 1500 µM | 1.279 ± 0.022 s⁻¹ | 0.9 ± 2.7% | 1.268 ± 0.026 s⁻¹ | – | – | – | – | > 1000 µM | – | – | –
O=C(NCc1ccc(Br)c(C(F)(F)F)c1)[C@@H]1C[C@@H](O)CN1 [Compound 1] | – | > 1500 µM | 1.115 ± 0.020 s⁻¹ | 4.1 ± 3.1% | 1.069 ± 0.028 s⁻¹ | – | – | – | – | > 1000 µM | – | – | –
CC(C)(C)CC(=O)N1C[C@H](O)C[C@H]1C(=O)NCc1ccc(Br)cc1C(F)(F)F [Compound 11] | 110 µM | 110 ± 9 µM | 2.740 ± 0.096 s⁻¹ | 47.9 ± 4.1% | 1.427 ± 0.033 s⁻¹ | 1.534 ± 0.071 s⁻¹ | 3.122 ± 0.145 s⁻¹ | 50.9 ± 5.7% | – | – | – | – | –
Cc1ncsc1-c1ccc(CNC(=O)[C@@H]2C[C@@H](O)CN2)c(C(F)(F)F)c1 [Compound 13] | – | – | 1.609 ± 0.017 s⁻¹ | 3.2 ± 2.0% | 1.558 ± 0.028 s⁻¹ | – | – | – | – | – | ^c | 2530 µM | unspecific / promiscuous binding to the protein surface
Cc1ncsc1-c1ccc(CNC(=O)[C@@H]2C[C@@H](O)CN2)cc1C(F)(F)F [Compound 5] | – | > 1500 µM | 0.936 ± 0.011 s⁻¹ | 2.2 ± 1.8% | 0.915 ± 0.012 s⁻¹ | – | – | – | – | > 1000 µM | – | – | –
Cc1ncsc1-c1ccc(CNC(=O)[C@@H]2C[C@@H](O)CN2C(=O)CC(C)(C)C)c(C(F)(F)F)c1 [Compound 15] | 35.2 µM | 35.2 ± 7 µM | 2.634 ± 0.058 s⁻¹ | 41.3 ± 2.7% | 1.545 ± 0.035 s⁻¹ | – | – | – | – | – | – | – | –
CC(=O)NC(C(=O)N1CC(O)CC1C(=O)NCc1ccc(Br)c(C(F)(F)F)c1)C(C)(C)C (stereo not drawn) [Compound 4] | 4.39 µM | 4.39 ± 0.12 µM | 1.924 ± 0.037 s⁻¹ | 38.9 ± 2.5% | 1.175 ± 0.027 s⁻¹ | – | – | – | – | – | – | – | –
CC(=O)N1C[C@H](O)C[C@H]1C(=O)NCc1ccc(-c2scnc2C)cc1C(F)(F)F [Compound 14] | – | – | 3.425 ± 0.073 s⁻¹ | 53.9 ± 2.5% | 1.579 ± 0.022 s⁻¹ | – | – | – | – | – | ^c | 223 µM | bind unspecifically / promiscuously to the protein surface
